# Molecular target: T1, hCRTH2 (Homo sapiens, UniProt Q9Y5Y4)
# T1 construct: expressed in transfected cells; host or cells: HEK (human embryonic kidney) cells expressing hCRTH2; membrane preparation
# T1 sequence (Q9Y5Y4 1-395): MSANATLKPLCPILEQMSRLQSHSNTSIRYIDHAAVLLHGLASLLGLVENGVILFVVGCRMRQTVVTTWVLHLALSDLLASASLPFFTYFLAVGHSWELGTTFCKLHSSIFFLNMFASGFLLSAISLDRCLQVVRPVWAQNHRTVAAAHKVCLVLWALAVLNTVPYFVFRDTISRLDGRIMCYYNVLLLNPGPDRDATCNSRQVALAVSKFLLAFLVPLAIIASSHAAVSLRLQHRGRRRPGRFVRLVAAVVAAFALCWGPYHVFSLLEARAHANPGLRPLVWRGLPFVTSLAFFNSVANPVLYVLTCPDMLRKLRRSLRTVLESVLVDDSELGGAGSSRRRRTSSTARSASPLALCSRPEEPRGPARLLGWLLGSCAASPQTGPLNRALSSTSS
# Experiment: Radioligand binding assay ([3H]PGD2 competition, HEK-hCRTH2 membranes)
# Details: [3H]PGD2 binding, values in text
# How it was run: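 Using membranes of an HEK line stably carrying hCRTH2, ligands were tested against [3H]PGD2 (3.0 nM) in pH 7.4 Tris buffer containing 2 mM MnCl2 and 1 mM EDTA. After one hour at room temperature, filters were washed cold and counted.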
row,Structure (SMILES),Ki [nM]
1,"O=C(O)CCCCc1nc2cc(C(=O)N[C@H]3CCS(=O)(=O)c4ccccc43)ccc2nc1-c1ccc(F)cc1 [compound 709, (S)-5-(7-((1,1-dioxidothiochroman-4-yl)carbamoyl)-3-(4-fluorophenyl)quinoxalin-2-yl)pentanoic acid]",18.4

# Same assay, conditions: [3H]PGD2 competition, Table B
row,Structure (SMILES),Ki [nM]
1,"CS(=O)(=O)c1ccccc1N1CCN(C(=O)c2ccc3nc(-c4ccc(Cl)cc4)c(CCCCC(=O)O)nc3c2)CC1 [compound 697, 5-(3-(4-chlorophenyl)-7-(4-(2-(methylsulfonyl)phenyl)piperazine-1-carbonyl)quinoxalin-2-yl)pentanoic acid]",2.1 to 20
2,"O=C(O)CCCCc1nc2cc(C(=O)N3C[C@H]4CC[C@@H]3CN4Cc3ccccc3)ccc2nc1-c1ccc(Cl)cc1 [compound 698, 5-(7-((1R,4R)-5-benzyl-2,5-diazabicyc1o[2.2.2]octane-2-carbonyl)-3-(4-chlorophenyl)quinoxalin-2-yl)pentanoic acid]",2.1 to 20
3,"O=C(O)CCCCc1nc2cc(C(=O)N3C[C@H]4C[C@@H]3CN4C(=O)OCc3ccccc3)ccc2nc1-c1ccc(Cl)cc1 [compound 699, 5-(7-((1R,4R)-5-((benzyloxy)carbonyl)-2,5-diazabicyclo[2.2.1]heptane-2-carbonyl)-3-(4-chlorophenyl)quinoxalin-2-yl)pentanoic acid]",2.1 to 20
4,"Cc1nc(N2CCN(C(=O)c3ccc4nc(-c5ccc(Cl)cc5)c(CCCCC(=O)O)nc4c3)CC2)cn1C [compound 700, 5-(3-(4-chlorophenyl)-7-(4-(1,2-dimethyl-1H-imidazol-4-yl)piperazine-1-carbonyl)quinoxalin-2-yl)pentanoic acid]",20.1 to 200
5,"O=C(O)CCCCc1nc2cc(C(=O)N3CCN(c4nc5ccccc5o4)CC3)ccc2nc1-c1ccc(Cl)cc1 [compound 701, 5-(7-(4-(benzo[d]oxazol-2-yl)piperazine-1-carbonyl)-3-(4-chlorophenyl)quinoxalin-2-yl)pentanoic acid]",2.1 to 20
6,O=C(O)CCCCc1nc2cc(C(=O)N3[C@@H]4CC[C@H]3CN(Cc3ccccc3)C4)ccc2nc1-c1ccc(Cl)cc1 [compound 702],2.1 to 20
7,"Cc1cc(N2CCN(C(=O)c3ccc4nc(-c5ccc(Cl)cc5)c(CCCCC(=O)O)nc4c3)CC2)cc(C)n1 [compound 703, 5-(3-(4-chlorophenyl)-7-(4-(2,6-dimethylpyridin-4-yl)piperazine-1-carbonyl)quinoxalin-2-yl)pentanoic acid]",201 to 700
8,"O=C(O)CCCCc1nc2cc(C(=O)N3C[C@H]4CC[C@@H](C3)N4Cc3ccccc3)ccc2nc1-c1ccc(Cl)cc1 [compound 704, 5-(7-((1R,5S)-8-benzyl-3,8-diazabicyclo[3.2.1]octane-3-carbonyl)-3-(4-chlorophenyl)quinoxalin-2-yl)pentanoic acid]",2.1 to 20
9,"O=C(O)CCCCc1nc2cc(C(=O)N3CCn4ccnc4C3)ccc2nc1-c1ccc(Cl)cc1 [compound 705, 5-(3-(4-chlorophenyl)-7-(5,6,7,8-tetrahydroimidazo[1,2-a]pyrazine-7-carbonyl)quinoxalin-2-yl)pentanoic acid]",201 to 700
10,"O=C(N[C@@H]1CCCc2ccccc21)c1ccc2nc(-c3ccccc3)c(CCCC(O)C(=O)O)nc2c1 (stereo partly drawn) [compound 706, 2-hydroxy-5-(3-phenyl-7-(((R)-1,2,3,4-tetrahydronaphthalen-1-yl)carbamoyl)quinoxalin-2-yl)pentanoic acid]",201 to 700
11,"CC1(C)CCC(NC(=O)c2ccc3nc(-c4ccccc4)c(CCCCC(=O)O)nc3c2)c2ccccc21 (stereo not shown) [compound 707, 5-(7-((4,4-dimethyl-1,2,3,4-tetrahydronaphthalen-1-yl)carbamoyl)-3-phenylquinoxalin-2-yl)pentatioic acid]",2.1 to 20
12,"O=C(O)CCCCc1nc2cc(C(=O)N[C@H]3CCS(=O)(=O)c4ccccc43)ccc2nc1-c1ccc(F)cc1 [compound 709, (S)-5-(7-((1,1-dioxidothiochroman-4-yl)carbamoyl)-3-(4-fluorophenyl)quinoxalin-2-yl)pentanoic acid]",2.1 to 20
13,"O=C(O)CCCCc1nc2cc(C(=O)N[C@H]3CC(=O)Nc4ccccc43)ccc2nc1-c1ccccc1 [compound 710, (S)-5-(7-((2-oxo-1,2,3,4-tetrahydroquinolin-4-yl)carbamoyl)-3-phenylquinoxalin-2-yl)pentanoic acid]",20.1 to 200
14,"O=C(O)CCCCc1nc2cc(C(=O)N[C@@H]3CC(=O)Nc4ccccc43)ccc2nc1-c1ccccc1 [compound 711, (R)-5-(7-((2-oxo-1,2,3,4-tetrahydroquinolin-4-yl)carbamoyl)-3-phenylquinoxalin-2-yl)pentanoic acid]",2.1 to 20
15,"O=C(O)CCCCc1nc2cc(C(=O)N[C@H]3CC(=O)Nc4ccc(F)cc43)ccc2nc1-c1ccccc1 [compound 712, (S)-5-(7-((6-fluoro-2-oxo-1,2,3,4-tetrahydroquinolin-4-yl)carbamoyl)-3-phenylquinoxalin-2-yl)pentanoic acid]",20.1 to 200
16,"O=C(O)CCCCc1nc2cc(C(=O)N[C@@H]3CC(=O)Nc4ccc(F)cc43)ccc2nc1-c1ccccc1 [compound 713, (R)-5-(7-((6-fluoro-2-oxo-1,2,3,4-tetrahydroquinolin-4-yl)carbamoyl)-3-phenylquinoxalin-2-yl)pentanoic acid]",2.1 to 20
17,"O=C(O)CCCCc1nc2cc(C(=O)N[C@H]3CCS(=O)(=O)c4ccccc43)ccc2nc1-c1ccccc1 [compound 714, (S)-5-(7-((1,1-dioxidothiochroman-4-yl)carbamoyl)-3-phenylquinoxalin-2-yl)pentanoic acid]",20.1 to 200
18,"O=C(O)CCCCc1nc2cc(C(=O)N[C@@H]3CCS(=O)(=O)c4ccccc43)ccc2nc1-c1ccccc1 [compound 715, (R)-5-(7-((1,1-dioxidothiochroman-4-yl)carbamoyl)-3-phenylquinoxalin-2-yl)pentanoic acid]",2.1 to 20
19,"O=C(O)CCCCc1nc2cc(C(=O)N[C@@H]3CCCc4ccccc43)c(F)cc2nc1-c1ccccc1 [compound 716, (R)-5-(6-fluoro-3-phenyl-7-((1,2,3,4-tetrahydro-naphthalen-1-yl)carbamoyl)quinoxalin-2-yl)pentanoic acid]",2.1 to 20
20,"O=C(O)CCCCc1nc2cc(C(=O)N[C@@H]3CCCc4ccccc43)c(F)cc2nc1-c1ccc(F)cc1 [compound 717, (R)-5-(6-fluoro-3-(4-fluorophenyl)-7-((1,2,3,4-tetrahydronaphthalen-1-yl)carbamoyl)quinoxalin-2-yl)pentanoic acid]",2.1 to 20
21,"O=C(O)CCCCc1nc2cc(C(=O)N[C@@H]3CCCc4ccccc43)c(F)cc2nc1-c1ccc(Cl)cc1 [compound 718, (R)-5-(3-(4-chlorophenyl)-6-fluoro-7-((1,2,3,4-tetrahydronaphthalen-1-yl)carbamoyl)quinoxalin-2-yl)pentanoic acid]",2.1 to 20
22,"O=C(O)CCCCc1nc2cc(C(=O)N3C4C=C(c5ccccc5)CC3CC4)ccc2nc1-c1ccccc1 (stereo not shown) [compound 719, 5-(3-phenyl-7-(3-phenyl-8-azabicyclo[3.2.1]oct-2-ene-8-carbonyl)quinoxalin-2-yl)pentanoic acid]",2.1 to 20
23,"O=C(O)CCCCc1nc2cc(C(=O)N[C@@H]3CCOc4cc(C(F)(F)F)ccc43)ccc2nc1-c1ccc(Cl)cc1 [compound 720, (R)-5-(3-(4-chlorophenyl)-7-((7-(trifluoromethyl)chroman-4-yl)carbamoyl)quinoxalin-2-yl)pentanoic acid]",2.1 to 20
24,"CC1(C)CC[C@H](NC(=O)c2ccc3nc(-c4ccccc4)c(CCCCC(=O)O)nc3c2)c2ccccc21 [compound 721, (S)-5-(7-((4,4-dimethyl-1,2,3,4-tetrahydronaphthalen-1-yl)carbamoyl)-3-phenylquinoxalin-2-yl)pentanoic acid]",2.1 to 20
